In patent US4927831A, “Spiro-isoquinoline-pyrrolidine tetrones and analogs thereof useful as aldose reductase inhibitors” (American Home Products, priority 1989, dated 1990):
Read-outs that look alike come from different tables or passages of the source.

What was measured:
[1] = tested on: dulcitol accumulation in the sciatic nerve; experiment: % lowering of dulcitol accumulation in sciatic nerve (N) of galactosemic rats; type: in vivo, Sprague-Dawley; design: key: NS: statistically nonsignificant change; conditions: 4 days
Description: (§1) The aldose reductase inhibiting property of the compounds of this invention and the utilization of the compounds in preventing, diminishing and alleviating diabetic complications are demonstrable in experiments using galactosemic rats, see Dvornik et al., Science, 182, 1146 (1973). Such experiments are exemplified hereinbelow after the listing of the following general comments pertaining to these experiments:
(§2) (a) Four or more groups of six male rats, 50-70 g, Sprague-Dawley strain, were used. The first group, the control group, was fed a mixture of laboratory chow (rodent Laboratory Chow, Purina) and glucose at 20% (w/w %) concentration. An untreated galactosemic group was fed a similar diet in which galactose was substituted for glucose. The third group was fed a diet prepared by mixing a given amount of the test compound with the galactose containing diet. The concentration of galactose in the diet of the treated groups was the same as that for the untreated galactosemic group.
(§3) (b) After four days, the animals were killed by euthanization. Both the lens and sciatic nerve were removed, weighed and stored frozen for polyol determination.
(§4) (c) The polyol determination was performed by a modification of the procedure of M. Kraml and L. Cosyns, Clin. Biochem., 2,373 (1969). Only two minor reagent changes were made: (a) The rinsing mixture was an aqueous 5% (w/v) trichloroacetic acid solution and (b) the stock solution was prepared by dissolving 25 mg of dulcitol in 100 ml of an aqueous trichloroacetic acid solution. [N.B.: For each experiment the average value found in the tissue from rats fed the glucose diet was subtracted from the individual values found in the corresponding tissue in galactose-fed rats to obtain the amount of polyol accumulated.] The aldose reductase inhibiting effects of the compounds of formula (I) were also tested by employing an in vitro testing procedure similar to that described by S. Hayman and J.H. Kinoshita, J. Biol. Chem., 240,877 (1965). In the present case the procedure of Hayman and Kinoshita was modified in that the final chromatography step was omitted in the preparation of the enzyme from bovine lens.
(§5) The figures under L and N represent the percentage decrease of dulcitol accumulation in the tissues of the lens and sciatic nerve, respectively, for treated rats as compared to untreated rats.

aldose reductase = biological target: T1, aldose reductase (Bos taurus, UniProt P16116); experiment: in vitro aldose reductase inhibition (modified Hayman and Kinoshita; enzyme from bovine lens); type: biochemical; conditions: read-out: % Inhibition IN VITRO
T1 construct: preparation of the enzyme from bovine lens; from tissue; host or cells: bovine lens
Procedure: Only two minor reagent changes were made: (a) The rinsing mixture was an aqueous 5% (w/v) trichloroacetic acid solution and (b) the stock solution was prepared by dissolving 25 mg of dulcitol in 100 ml of an aqueous trichloroacetic acid solution. [N.B.: For each experiment the average value found in the tissue from rats fed the glucose diet was subtracted from the individual values found in the corresponding tissue in galactose-fed rats to obtain the amount of polyol accumulated.] […] In the present case the procedure of Hayman and Kinoshita was modified in that the final chromatography step was omitted in the preparation of the enzyme from bovine lens. […] The figures under L and N represent the percentage decrease of dulcitol accumulation in the tissues of the lens and sciatic nerve, respectively, for treated rats as compared to untreated rats.

[2] = tested on: dulcitol accumulation in the lens; experiment: % lowering of dulcitol accumulation in lens (L) of galactosemic rats; type: in vivo, Sprague-Dawley; design: key: NS: statistically nonsignificant change; conditions: 4 days
Description: as §1, §2, §3, §4, §5

Row | Structure (SMILES) | % Lowering Dulcitol Accumulation IN VIVO, N (sciatic nerve) ([1]; 1.0 mg/kg in diet) [%] | inhibition at 0.04 µM (aldose reductase; 4 × 10^-8 M) [%] | inhibition at 10 µM (aldose reductase; 10^-5 M) [%] | inhibition at 1 µM (aldose reductase; 10^-6 M) [%] | inhibition at 0.1 µM (aldose reductase; 10^-7 M) [%] | % Lowering Dulcitol Accumulation IN VIVO, L (lens) ([2]; 1.0 mg/kg in diet) | % Lowering Dulcitol Accumulation IN VIVO, N (sciatic nerve) ([1]; 0.5 mg/kg in diet) | inhibition at 1 µM (aldose reductase) [%] | inhibition at 10 µM (aldose reductase) [%] | % Lowering Dulcitol Accumulation IN VIVO, L (lens) ([2]; 0.5 mg/kg in diet) | other results
1 | O=C1CC2(C(=O)N1)C(=O)N(Cc1ccc(Cl)c(Cl)c1)C(=O)c1ccccc12 (stereo not drawn) [2-[(3,4-Dichlorophenyl)methyl]spiro[isoquinoline-4(1H),3'-pyrrolidine]-1,2',3,5'(2H)-tetrone] | 64.0 | 42 | 100 | 97 | 87 | 10.0% | – | – | – | – | % Lowering Dulcitol Accumulation IN VIVO, N (sciatic nerve) ([1]; 3.0 mg/kg in diet): 76.0%; % Lowering Dulcitol Accumulation IN VIVO, N (sciatic nerve) ([1]; 10.0 mg/kg in diet): 92.0%; % Lowering Dulcitol Accumulation IN VIVO, N (sciatic nerve) ([1]; 48.0 mg/kg in diet): 85.0%; % Lowering Dulcitol Accumulation IN VIVO, L (lens) ([2]; 3.0 mg/kg in diet): 18.0%; % Lowering Dulcitol Accumulation IN VIVO, L (lens) ([2]; 10.0 mg/kg in diet): 35.0%; % Lowering Dulcitol Accumulation IN VIVO, L (lens) ([2]; 48.0 mg/kg in diet): 41.0%
2 | O=C1CC2(C(=O)N1)C(=O)N(Cc1ccc(Br)cc1F)C(=O)c1ccccc12 (stereo not drawn) [2-[(4-Bromo-2-fluorophenyl)methyl]spiro[isoquinoline-4(1H),3'-pyrrolidine]-1,2',3,5'(2H)-tetrone] | 95.0 | 51 | – | – | – | 16.0% | 82.0% | 94 | 96 | 12.0% | % Lowering Dulcitol Accumulation IN VIVO, N (sciatic nerve) ([1]; 0.1 mg/kg in diet): 26.0%; % Lowering Dulcitol Accumulation IN VIVO, N (sciatic nerve) ([1]; 0.3 mg/kg in diet): 60.0%; inhibition at 0.1 µM (aldose reductase): 94%; % Lowering Dulcitol Accumulation IN VIVO, L (lens) ([2]; 0.1 mg/kg in diet): NS; % Lowering Dulcitol Accumulation IN VIVO, L (lens) ([2]; 0.3 mg/kg in diet): NS
3 | CN1C(=O)c2ccc(Br)cc2C2(CC(=O)NC2=O)C1=O (stereo not drawn) [6-Br H CH3, 6-Bromo-2-methylspiro[isoquinoline-4(1H),3'-pyrrolidine]-1,2',3,5'(2H)-tetrone] | 54 | 43 | 100 | 100 | 85 | NS | – | – | – | – | –
4 | CN1C(=O)c2ccc(Cl)cc2C2(CC(=O)NC2=O)C1=O (stereo not drawn) [6-Cl H CH3, 6-Chloro-2-methylspiro[isoquinoline-4(1H)3'-pyrrolidine]-1,2',3,5'(2H)-tetrone] | 75 | 43 | – | – | 73 | 33% | – | 94 | 93 | – | % Lowering Dulcitol Accumulation IN VIVO, N (sciatic nerve) ([1]; 3.0 mg/kg in diet): 75%; % Lowering Dulcitol Accumulation IN VIVO, L (lens) ([2]; 3.0 mg/kg in diet): 59%
5 | O=C1C[C@@]2(C(=O)N1)C(=O)N(Cc1ccc(Br)cc1F)C(=O)c1ccccc12 [(R)-(+)-2-[(4-Bromo-2-fluorophenyl)methyl]spiro[isoquinoline-4(1H),3'-pyrrolidine]-1,2',3,5'(2H)-tetrone] | – | 87 | – | – | 91 | – | 83% | 93 | 96 | NS | % Lowering Dulcitol Accumulation IN VIVO, N (sciatic nerve) ([1]; 5.1 mg/kg in diet): 100%; % Lowering Dulcitol Accumulation IN VIVO, L (lens) ([2]; 5.1 mg/kg in diet): NS
6 | O=C1C[C@@]2(C(=O)N1)C(=O)N(Cc1ccc(Br)cc1F)C(=O)c1ccc(F)cc12 [(R)-(+)-[2-[(4-Bromo-2-fluorophenyl)methyl]-6-fluoro]spiro[isoquinoline-4(1H),3'-pyrrolidine]-1,2',3,5'(2H)-tetrone] | – | – | – | – | – | – | – | 95 | 99 | – | % Lowering Dulcitol Accumulation IN VIVO, N (sciatic nerve) ([1]; 0.4 mg/kg in diet): 100%; % Lowering Dulcitol Accumulation IN VIVO, N (sciatic nerve) ([1]; 0.8 mg/kg in diet): 100%; inhibition at 0.04 µM (aldose reductase): 93%; inhibition at 0.1 µM (aldose reductase): 93%; % Lowering Dulcitol Accumulation IN VIVO, L (lens) ([2]; 0.4 mg/kg in diet): 31%; % Lowering Dulcitol Accumulation IN VIVO, L (lens) ([2]; 0.8 mg/kg in diet): 26%
7 | O=C1C[C@]2(C(=O)N1)C(=O)N(Cc1ccc(Br)cc1F)C(=O)c1ccccc12 [(S)-(-)-2-[(4-Bromo-2-fluorophenyl)methyl]spiro[isoquinoline-4(1H),3'-pyrrolidine]-1,2',3,5'(2H)-tetrone] | – | – | 87 | 51 | – | – | NS | – | – | NS | % Lowering Dulcitol Accumulation IN VIVO, N (sciatic nerve) ([1]; 4.8 mg/kg in diet): 83%; % Lowering Dulcitol Accumulation IN VIVO, L (lens) ([2]; 4.8 mg/kg in diet): NS
